Measured values published in US5369111A, “Modulator agent and use thereof” (University of Vermont, priority 1992, dated 1994).

What was measured:
[1] = Clonogenic assay for cytotoxicity, MDR variant KB-V1; assay type: cell-based, human; conditions: human, kb-v1 cells; read-out: non-toxic concentration limit
From the text: The analogs were examined in a panel of tumor cell lines of both intrinsic and acquired drug resistance, as described in Table 1. The rat colon adenocarcinoma cell lines RCC-2 and RCC-5 (ref. 13) were maintained in Ham's F12 medium supplemented with 5% heat-inactivated, fetal bovine serum (Sterile Systems. Hyclone, Logan, Utah). The two rat colon cancer cell lines differ in their degree of cellular differentiation; whereas the RCC-2 cell line is undifferentiated, the RCC-5 cell line is highly mucinous. The human epidermoid carcinoma cell line KB-3-1 and its MDR variant KB-Vl, selected by VBL treatment (ref. 14; courtesy of M. Gottesman. National Cancer Institute), was maintained in DMEM medium supplemented with 10%, heat-inactivated, fetal bovine serum. The murine sarcoma cell line […] and its MDR strains A3 and A10 selected by ADM treatment (ref. 15; courtesy of T. Tritton, Dept. Pharmacology, Univ. Vermont). were maintained in DMEM medium supplemented with 10% heat-inactivated, horse serum (Hazelton Biolog. Lenexa, Kans.). Stock cultures were subcultured twice weekly upon reaching the late exponential phase of population growth: population doubling times were 18-24 h. Antibiotics were not used in stock or experimental cultures. The MDR cell strains were grown in drug-free media for 48 h prior to experimental use.
Mid-exponential cultures were used for all assays. The RCC-2 and RCC-5 cell lines were seeded into 24-well plates at 2×10^4 cells/well and allowed to attach to the substratum for 16-18 h prior to treatment. The S180 cell lines were seeded into culture tubes at 1×10^5 cells/ml and treated immediately. Cytotoxicity was determined by quantitation of population growth after 72 h incubation by electronic particle counter (Coulter Electronics, Hialeah, Fla.). The human tumor cell lines were used in a clonogenic assay for cytotoxicity. Cells were seeded at 300 cells/dish, incubated overnight and then treated. Colonies were scored 7-11 days later. In all assays of analog modulation of drug sensitivity, the analog was added minutes prior to the addition of cytotoxic drug.
FIG. 10 represents the potency of the analog C-20'-deoxy deethyl vincovaline as a modulator of the drug sensitivity of various cell lines: the parental S180 cell line: the two rat colon cancer cell lines, RCC-2 and RCC-5; and the human epidermoid carcinoma cell line KB-3-1 and its MDR cell strain KB-V1, which expresses very high levels of drug resistance (200-500 fold). The enhancement of sensitivity was calculated as the sensitivity index =IC50 of the drug alone divided by the IC50 of the drug+analog. The drugs examined were ADM (o), VBL (Δ), and VCR (.quadrature.). The cytotoxicity of drug and analog treatments in the KB cell lines were measured by cloning efficiencies. The arrows denote the non-toxic concentration limit of the analog in each cell line.

S180/A10 cells = assay: Modulator potency in MDR cells: reversal of acquired resistance, S180/A10; assay type: cell-based, murine
Outline: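 S180/A3 and S180/A10 MDR cells at 1×10^5 cells/ml exposed to a modulator concentration range, added minutes before VBL, VCR or ADM at parental-cell IC70s. Growth counted by electronic particle counter after 72 h. Value is the minimal modulator concentration restoring 70% growth inhibition; mean of 2-3 experiments.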

RCC-2 and RCC-5 cells = assay: Inhibition of population growth of rat colon cancer cell lines RCC-2 and RCC-5; assay type: cell-based; conditions: RCC-2 and RCC-5
From the text: The analogs were examined in a panel of tumor cell lines of both intrinsic and acquired drug resistance, as described in Table 1. The rat colon adenocarcinoma cell lines RCC-2 and RCC-5 (ref. 13) were maintained in Ham's F12 medium supplemented with 5% heat-inactivated, fetal bovine serum (Sterile Systems. Hyclone, Logan, Utah). The two rat colon cancer cell lines differ in their degree of cellular differentiation; whereas the RCC-2 cell line is undifferentiated, the RCC-5 cell line is highly mucinous. The human epidermoid carcinoma cell line KB-3-1 and its MDR variant KB-Vl, selected by VBL treatment (ref. 14; courtesy of M. Gottesman. National Cancer Institute), was maintained in DMEM medium supplemented with 10%, heat-inactivated, fetal bovine serum. […]
Mid-exponential cultures were used for all assays. […] Cytotoxicity was determined by quantitation of population growth after 72 h incubation by electronic particle counter (Coulter Electronics, Hialeah, Fla.). […] Colonies were scored 7-11 days later. […]
FIG. 7 represents the toxicity of analog C-20'-deoxy vincovaline (A) and C-20'-deoxy deethyl vincovaline (B) to population growth of the rat colon adenocarcinoma cell lines. The congener was added at various concentrations to RCC-2 (.cndot.) and RCC-5 (Δ) cell cultures and the population cell number was determined 72 hours later. […]

P388 R cells = assay: Sensitization of P388 R cells to antitumorous agents; assay type: cell-based, mouse
Description: (§1) The sensitization of C-20'-deoxy C-20'-deethyl vincovaline (D-DEV) has been tested on sensitive and resistants P388 cell lines originating from mouse lympnoma.
(§2) The resistance to anticancerous drug has been induced on DBA2 mouses bearing P388 cells ascites and maintained by treatment with adryamycin.
The P388 R cells are incubated at 37° C. during 24 hours with constant subtoxic concentrations of antitumoral drugs and increasing concentrations of modulators from 1 to 100 μM.

[2] = Viability (MTT test) of P388 R cells; assay type: cell-based, mouse; conditions: mouse; resistant cells P388 R, 24 h and 48 h; read-out: concentrations up to which no cytotoxicity is seen
From the text: as §1, §2
This study has been carried out at least in triplicate.

CC[C@]12C=CCN3CC[C@@]4(c5cc([C@]6(C(=O)OC)C[C@H]7CCCN(CCc8c6[nH]c6ccccc86)C7)c(OC)cc5N(C)[C@H]4[C@@](O)(C(=O)OC)[C@@H]1OC(C)=O)[C@@H]32 [analog n° 352, C-20'-deoxy-20'-deethyl-C-14', 16'-epi-VBL]
MNTC [1]: 20 µM | reversal of high level ADM resistance (in words) (S180/A10 cells; A10 cells, 90 fold ADM resistance): can reverse high level (90-fold) ADM resistance in MDR cells | reversal of high level ADM resistance (S180/A10 cells; ADM, 90-fold resistance, A10): 80% | reduction in cytotoxicity to the colon cancer cell lines compared to C-20'-deoxy vincovaline (RCC-2 and RCC-5 cells): 10 fold | percentage of cellular survival (P388 R cells; modulator 30 μM, ADM 1.72 μM, 1440 min): 50% | modulator effect on P388 R cells with ADM (in words) (P388 R cells; modulator 100 μM, ADM 0.17 μM): no effect | MNTC [2]: ≥ 100 µM
